The values that follow are results of earlier work, collected in paper PMC6640857 (Tetrahedron, 2019).

Where only a bound is given, the exact number is not on record here.

The conditions of the series: relative to vancomycin; cited from earlier work.

Consider “chlorobiphenylmethyl (CBP-)vancomycin [compound 2]”, for which the “enhancement of antimicrobial potency by the CBP modification” value is reported as at most 100 fold.
